Our source for the IC50 values is patent US9115093B2, “Substituted bicyclic dihydropyrimidinones and their use as inhibitors of neutrophil elastase activity” (Boehringer Ingelheim International GmbH, priority 2013, dated 2015).

Each structure is given as a SMILES string.

For this test, the target named is T1, neutrophil elastase (Homo sapiens, UniProt P08246).
T1 sequence (P08246 30-247 limits assumed): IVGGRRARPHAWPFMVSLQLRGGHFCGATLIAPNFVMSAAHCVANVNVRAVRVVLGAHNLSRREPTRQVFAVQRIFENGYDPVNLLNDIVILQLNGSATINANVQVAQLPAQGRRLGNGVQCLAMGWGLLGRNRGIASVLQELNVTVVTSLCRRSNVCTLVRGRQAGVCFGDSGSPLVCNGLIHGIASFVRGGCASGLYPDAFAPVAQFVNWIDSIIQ
Kind of test: Human Neutrophil Elastase Assay. It counts as biochemical. Set-up: purchased Calbiochem 324681. The note with it: substrate MeOSuc-Ala-Ala-Pro-Val-AMC, pH 7.5, room temperature. How it is done:
Human Neutrophil Elastase Assay
Materials: Human neutrophil elastase was purchased from Calbiochem (Cat.No.: 324681) and the elastase substrate MeOSuc-Ala-Ala-Pro-Val-AMC from Bachem (Cat.No.: I-1270). All other materials were of the highest grade commercially available.
The following buffers were used: Compound buffer: 100 mM Tris, 500 mM NaCl, adjusted to pH 7.5; Assay buffer: 100 mM Tris, 500 mM NaCl, adjusted to pH 7.5, containing 0.01% BSA.
Assay conditions: Test compounds were prediluted in DMSO and subsequently in compound buffer (5% DMSO final). 5 μL of these compound dilutions were mixed with 10 μl Neutrophil elastase (9 ng/ml in assay buffer) in a black 384 well OptiPlate (Perkin Elmer, Cat No.: 6007270) and incubated for 15 min at room temperature. Subsequently 10 μL substrate solution in assay buffer were added (250 nM final concentration) and the plates were incubated for 60 min at room temperature. After inactivation of the enzyme, fluorescence intensities were measured at 380 nm excitation and 460 nm emission wavelengths.
Each plate contains wells with a high value control (DMSO+enzyme+substrate) and wells with a low value control (DMSO+inactivated enzyme+substrate). IC50 values were estimated using a sigmoidal concentration response curve with variable slope. Means of low values were taken as 0%, means of high values as 100%.

`N#Cc1ccc(C2C3=C(CCCC3=O)N(c3cccc(C(F)(F)F)c3)C(=O)N2C(=O)NC2CC2)cc1` (stereo not drawn) [Example 70.3]: the half-inhibitory concentration (IC50) (usually the concentration that gives 50% inhibition) was under 1 nM.
Compound `COc1cc(C2CC(=O)C3=C(C2)N(c2cccc(C(F)(F)F)c2)C(=O)NC3c2ccc(C#N)cc2)cc(OC)c1OC` (stereo not drawn) [Example 8, 4-(2,5-Dioxo-1-(3-(trifluoromethyl)phenyl)-7-(3,4,5-trimethoxyphenyl)-1,2,3,4,5,6,7,8-octahydroquinazolin-4-yl)benzonitrile] came in with an IC50 of 26.3 nM.
Then `N#Cc1ccc(C2C3=C(CCCC3=O)N(c3cccc(C(F)(F)F)c3)C(=O)N2S(=O)(=O)C=Cc2ccccc2)cc1` (stereo not drawn) [Example 44.12], with 106 nM; and `N#Cc1ccc(C2C3=C(CCCC3=O)N(c3cccc(C(F)(F)F)c3)C(=O)N2C(=O)NC2CCOCC2)cc1` (stereo not drawn) [Example 70.14], with under 1 nM; and `N#Cc1ccc(C2C3=C(CCCC3=O)N(c3cccc(C(F)(F)F)c3)C(=O)N2CC(=O)NCC2CCOC2)cc1` (stereo not drawn) [Example 36.22], with 6.8 nM.
Then `N#Cc1ccc(C2C3=C(CCCC3=O)N(c3cccc(C(F)(F)F)c3)C(=O)N2C(=O)NCC2CC(O)C2)cc1` (stereo not drawn) [Example 70.15], with under 1 nM; and `COC1CCN(C(=O)N2C(=O)N(c3cccc(C(F)(F)F)c3)C3=C(C(=O)CCC3)C2c2ccc(C#N)cc2)CC1` (stereo not drawn) [Example 39.18], with 79.1 nM.
`N#Cc1ccc(C2C3=C(CCCC3=O)N(c3cccc(C(F)(F)F)c3)C(=O)N2CC(=O)NC2CC2)cc1` (stereo not drawn) [Example 36.2]: the IC50 was 13.1 nM.
Take `N#Cc1ccc(C2C3=C(CCCC3=O)N(c3cccc(C(F)(F)F)c3)C(=O)N2C(=O)NC2COC2)cc1` (stereo not drawn) [Example 39.5]: the concentration for half-maximal inhibition (IC50) was under 1 nM.
As to `N#Cc1ccc(C2C3=C(CCCC3=O)N(c3cccc(C(F)(F)F)c3)C(=O)N2CC(=O)N2CC3(CCC3)C2)cc1` (stereo not drawn) [Example 36.17], the midpoint of inhibition, the IC50, lay at 5.5 nM.
Take `CN1CCN(C(=O)N2C(=O)N(c3cccc(C(F)(F)F)c3)C3=C(C(=O)CCC3)C2c2ccc(C#N)cc2)CC1=O` (stereo not drawn) [Example 39.16]: the concentration for half-maximal inhibition (IC50) was determined as 46.9 nM. Against the preceding compound, the IC50 is about 8.5-fold higher.
`CN1CC(CNC(=O)CN2C(=O)N(c3cccc(C(F)(F)F)c3)C3=C(C(=O)CCC3)C2c2ccc(C#N)cc2)CC1=O` (stereo not drawn) [Example 36.59] came in with a half-inhibitory concentration (IC50) of 8.6 nM. This IC50 is about 5.5-fold lower than that of the compound before.
In the case of `CN(C)CCCN(C)C(=O)CN1C(=O)N(c2cccc(C(F)(F)F)c2)C2=C(C(=O)CCC2)C1c1ccc(C#N)cc1` (stereo not drawn) [Example 36.43], half-maximal inhibition (IC50) required 12.1 nM.
Then `CC1CN(C(=O)CN2C(=O)N(c3cccc(C(F)(F)F)c3)C3=C(C(=O)CCC3)C2c2ccc(C#N)cc2)CC1C` (stereo not drawn) [Example 36.18], with 4 nM.
Then `N#Cc1ccc(C2C3=C(CCCC3=O)N(c3cccc(C(F)(F)F)c3)C(=O)N2CC2CCOC2)cc1` (stereo not drawn) [Example 25, 4-(1-(3-(Trifluoromethyl)phenyl)-2,5-dioxo-3-((tetrahydrofuran-3-yl)methyl)-1,2,3,4,5,6,7,8-octahydroquinazolin-4-yl)benzonitrile], with 8.6 nM.
For `CCNC(=O)N1C(=O)N(c2ccnc(C(F)(F)F)c2)C2=C(C(=O)CCC2)C1c1ccc(C#N)cc1` (stereo not drawn) [Example 76.2], the 50% inhibitory concentration (IC50) came out at 1.2 nM.
In turn, `N#Cc1ccc(C2C3=C(CCCC3=O)N(c3cccc(C(F)(F)F)c3)C(=O)N2CC(=O)NC2CCOC2)cc1` (stereo not drawn) [Example 36.9] gave an IC50 of 10.6 nM. This IC50 is about 8.8-fold higher than that of the compound before.
Compound `CC(C)(O)CNC(=O)N1C(=O)N(c2cccc(C(F)(F)F)c2)C2=C(C(=O)CCC2)[C@H]1c1ccc(C#N)cc1S(C)(=O)=O` [Example 75.12] had a concentration for half-maximal inhibition (IC50) of under 1 nM.
Then `CC1CCN(C(=O)CN2C(=O)N(c3cccc(C(F)(F)F)c3)C3=C(C(=O)CCC3)C2c2ccc(C#N)cc2)CC1` (stereo not drawn) [Example 36.19], with 10.2 nM; and `N#Cc1ccc(C2C3=C(CCCC3=O)N(c3cccc(C(F)(F)F)c3)C(=O)N2C(=O)N2CC(O)C2)cc1` (stereo not drawn) [Example 39.4], with 13.4 nM; and `CS(=O)(=O)c1cc(C#N)ccc1[C@@H]1C2=C(CCCC2=O)N(c2cccc(C(F)(F)F)c2)C(=O)N1C(=O)NC1CCOC1` (stereo partly drawn) [Example 75.10], with under 1 nM.
